Measurements: US5648354A, “1,2-dithiins having antifungal activity” (Shaman Pharmaceuticals, Inc., priority 1995, dated 1997)
Converted amounts (≈) assume the structure as drawn.

How the values were obtained:
Assay in all cases: In vitro antifungal activity (minimum inhibitory concentration)
Assay type in all cases: cell-based
[1] = tested on: Candida albicans ATCC10259; details: read-out: Minimum Inhibitory Concentration (MIC) CA
Protocol: (§1) The antifungal activities of representative 1,2-dithiin compounds listed below were determined in vitro using three fungal cultures: Candida albicans ATCC10259 (CA), Cryptococcus neoformans ATCC36556 (CN), and Aspergillus fumigatus ATCC13073 (AF).
(§2) The method used to determine in vitro antifungal activity is discussed in McGinnis, M. R., Laboratory Handbook of Medical Mycology, Academic Press, New York, London, p 661 (1980); and Drouget, E.; Dupont, B.; Improvist, L.; Vivian, M. A.; and Tortorano, A. M.; "Disc Agar Diffusion and Microplate Automatized Techniques for In Vitro Evaluation of Antifungal Agents on Yeast and Sporulated Pathogenic Fungi" in In Vitro and In Vivo Evaluation of Antifungal Agents, Eds. lwata, K. and Vanden Bossche, H., Elsevier Science Publishers, New York, Oxford, p. 303 (1986).

[2] = tested on: Aspergillus fumigatus ATCC13073; details: read-out: Minimum Inhibitory Concentration (MIC) AF
Protocol: as §1, §2

[3] = tested on: Cryptococcus neoformans ATCC36556; details: read-out: Minimum Inhibitory Concentration (MIC) CN
Protocol: as §1, §2

Compound | MIC [1] [µg/mL] | MIC [2] [µg/mL] | MIC [3] [µg/mL]
O=[N+]([O-])c1ccc(OCC2=CC=C(CO)SS2)nc1 [3-(hydroxymethyl)-6-[(5-nitropyridyl-2-oxy)methyl]-1,2-dithiin] | 0.2 (≈ 0.67 µM) | 0.4 (≈ 1.34 µM) | 0.1 (≈ 0.335 µM)
CC1(C)OCC(COCC2=CC=C(COCC3COC(C)(C)O3)SS2)O1 (stereo not drawn) [3,6-Bis[[(2,2-dimethyl-1,3-dioxolan-4-yl)methyloxy]methyl]-1,2-dithiin] | > 100 | > 100 | > 100
OCC1=CC=C(COc2cccnc2)SS1 [3-(Hydroxymethyl)-6-[(pyridyl-3-oxy)methyl]-1,2-dithiin] | 3.1 (≈ 12.2 µM) | 3.1 (≈ 12.2 µM) | 1.6 (≈ 6.32 µM)
OCC1=CC=C(CSc2nnnn2-c2ccc(O)cc2)SS1 [3-(Hydroxymethyl)-6-[methylthio-[1-(4-hydroxyphenyl)tetrazol-5-yl]]-1,2-dithiin] | 25 (≈ 70.9 µM) | 12.5 (≈ 35.5 µM) | 6.3 (≈ 17.9 µM)
OCC1=CC=C(COc2ccccn2)SS1 [3-(Hydroxymethyl)-6-[(pyridyl-2-oxy)methyl]-1,2-dithiin] | 3.1 (≈ 12.2 µM) | 3.1 (≈ 12.2 µM) | 3.1 (≈ 12.2 µM)
COC(=O)c1ccc(OCC2=CC=C(CO)SS2)cc1 [3-(hydroxymethyl)-6-[methyloxy[methyl benzoate-4-yl]]-1,2-dithiin] | 3.1 (≈ 9.99 µM) | 12.5 (≈ 40.3 µM) | 3.1 (≈ 9.99 µM)
O=c1ccccn1CC1=CC=C(CO)SS1 [3-(Hydroxymethyl)-6-[(pyrid-2-one-1-yl)methyl]-1,2-dithiin] | > 100 | > 100 | 12.5 (≈ 49.3 µM)
COC(=O)c1ccccc1OCC1=CC=C(CO)SS1 [3-(Hydroxymethyl)-6-[methyloxy[methyl benzoate-2-yl]]-1,2-dithiin] | 6.3 (≈ 20.3 µM) | 12.5 (≈ 40.3 µM) | 6.3 (≈ 20.3 µM)
OCC1=CC=C(COc2nc3ccccc3nc2O)SS1 [3-(Hydroxymethyl)-6-[methyloxy[3-hydroxyquinoxalin-2-yl]]-1,2-dithiin] | 50 (≈ 156 µM) | 100 (≈ 312 µM) | 25 (≈ 78 µM)
O=c1ccc(O)nn1CC1=CC=C(CO)SS1 [3-(Hydroxymethyl)-6-[(3-hydroxypyridazin-6-one-1-yl)methyl]-1,2-dithiin] | > 100 | > 100 | > 100
COC(=O)c1cccc(OCC2=CC=C(CO)SS2)c1 [3-(Hydroxymethyl)-6-[methyloxy[methyl benzoate-3-yl]]-1,2-dithiin] | 3.1 (≈ 9.99 µM) | 25 (≈ 80.5 µM) | 6.3 (≈ 20.3 µM)
OCC1=CC=C(COc2ccc(-n3ccnc3)cc2)SS1 [3-(hydroxymethyl)-6-[[4-(imidazol-1-yl)phenyloxy]methyl]-1,2-dithiin] | 12.5 (≈ 39.3 µM) | 100 (≈ 314 µM) | 100 (≈ 314 µM)
OCC1=CC=C(COc2ccccc2C(F)(F)F)SS1 [3-(Hydroxymethyl)-6-[(2-trifluoromethylphenyloxy)methyl]-1,2-dithiin] | 25 (≈ 78 µM) | 50 (≈ 156 µM) | 6.3 (≈ 19.7 µM)
CN(C)c1cccc(OCC2=CC=C(CO)SS2)c1 [3-(Hydroxymethyl)-6-[[3-(N,N-dimethylamino)phenyloxy]methyl]-1,2-dithiin] | > 50 | 100 (≈ 338 µM) | 50 (≈ 169 µM)
OCC1=CC=C(COc2ccccc2)SS1 [3-(Hydroxymethyl)-6-[(phenyloxy)methyl]-1,2-dithiin] | 25 (≈ 99.1 µM) | 25 (≈ 99.1 µM) | 12.5 (≈ 49.5 µM)
C#Cc1cccc(OCC2=CC=C(CO)SS2)c1 [3-(Hydroxymethyl)-6-[(3-ethynylphenyloxy)methyl]-1,2-dithiin] | 1.6 (≈ 5.79 µM) | 6.3 (≈ 22.8 µM) | 1.6 (≈ 5.79 µM)
OCC1=CC=C(COCC(O)CO)SS1 (stereo not drawn) [3-(Hydroxymethyl)-6-[methyloxy(2,3-dihydroxypropane-1-yl)]-1,2-dithiin] | > 100 | > 100 | > 100
OCC1=CC=C(COc2ccccc2F)SS1 [3-(Hydroxymethyl)-6-[(2-fluorophenyloxy)methyl]-1,2-dithiin] | 3.1 (≈ 11.5 µM) | 3.1 (≈ 11.5 µM) | 1.6 (≈ 5.92 µM)
OCC1=CC=C(COc2cc(C(F)(F)F)ccc2Cl)SS1 [3-(Hydroxymethyl)-6-[(2-chloro-5-trifluoromethyl-phenyloxy)methyl]-1,2-dithiin] | 1.6 (≈ 4.51 µM) | 6.3 (≈ 17.8 µM) | 1.6 (≈ 4.51 µM)
CC1(C)OCC(COCC2=CC=C(COCC(O)CO)SS2)O1 (stereo not drawn) [3-[[(2,2-Dimethyl-1,3-dioxolan-4-yl)methyloxy]methyl]-6-[methyloxy(2,3-dihydroxypropane-1-yl)]-1,2-dithiin] | > 100 | > 100 | > 100
O=C(OCC1=CC=C(CO)SS1)c1ccccc1 [3-(Benzoyloxymethyl)-6-(hydroxymethyl)-1,2-dithiin] | 6.3 (≈ 22.5 µM) | 3.1 (≈ 11.1 µM) | 3.1 (≈ 11.1 µM)
CC1(C)OCC(COCC2=CC=C(CO)SS2)O1 (stereo not drawn) [3-(Hydroxymethyl)-6-[[(2,2-dimethyl-1,3-dioxolan-4-yl)methyloxy]methyl]-1,2-dithiin] | > 100 | > 100 | > 100
O=c1ccc([N+](=O)[O-])cn1CC1=CC=C(CO)SS1 [3-(Hydroxymethyl)-6-[(5-nitropyrid-2-one-1-yl)methyl]-1,2-dithiin] | > 100 | > 100 | 100 (≈ 335 µM)
OCC1=CC=C(COc2ccc(O)nn2)SS1 [3-(Hydroxymethyl)-6-[(3-hydroxypyridazine-6-oxy)methyl]-1,2-dithiin] | > 100 | > 100 | > 100
OCC1=CC=C(COc2cccc(O)c2)SS1 [3-(Hydroxymethyl)-6-[(3-hydroxyphenyloxy)methyl]-1,2-dithiin] | 50 (≈ 186 µM) | > 100 | 100 (≈ 373 µM)
